What all share (assay): Minimum inhibitory concentration (MIC)
Assay type in all cases: cell-based

Assay [1] concerns Acinetobacter calcoaceticus AC 54. The note with it: Acinetobacter calcoaceticus, AC54, Acinetobacter calcoaceticus AC 54, Gram -. The protocol:
(§1) The compounds of the present invention (A, C, E, F, G, H and I) and ofloxacin as control were dissolved in 0.1N aqueous potassium hydroxide to prepare a solution of 5000 μg/ml in concentration. The compounds of the present invention (B, D and J) were dissolved in sterilized distilled water to prepare a solution of 5000 μg/ml in concentration. Each solution was diluted with sterilized distilled water to prepare a standard solution with a concentration of each test compound: 1000 μg/ml. The test was carried out by a method approved by Japan Society of Chemotherapy [cf. Chemotherapy, 29, 76-79 (1981)(TOKYO)].

The subject of assay [2] is Bacillus subtilis ATCC 6633. How it is done:
as §1

The test system of assay [3] is Citrobacter freundii NIHJ 10018-68. The note with it: NIHJ10018; Citrobacter freundii NIHJ 10018-68, Gram -. How it is done: as §1
Assay [4] concerns Enterobacter aerogenes ATCC 13048. The note with it: Klebsiella aerogenes, ATCC13048, Enterobacter aerogenes ATCC 13048, Gram -. The protocol: as §1
Assay [5] concerns Enterobacter cloacae 963. The note with it: Enterobacter cloacae 963, Gram -. The protocol:
as §1

Assay [6] concerns Escherichia coli KC-14. The note with it: KC14; Escherichia coli KC-14, Gram -. The protocol: as §1
In assay [7] the test system is Escherichia coli NIHJ JC-2. The note with it: NIHJJC2; Escherichia coli NIHJ JC-2, Gram -. The protocol: as §1
The test system of assay [8] is Klebsiella pneumoniae PCI 602. The note with it: Klebsiella pneumoniae. The protocol:
as §1

Assay [9] has as its system Micrococcus luteus ATCC 9341. The note with it: ATCC9341; Micrococcus luteus ATCC 9341, Gram +. The protocol: as §1
The subject of assay [10] is Morganella morganii IFO 3848. The note with it: IFO3848; Morganella morganii IFO 3848, Gram -. How it is done:
as §1

In assay [11] the test system is Proteus mirabilis IFO 3849. The note with it: IFO3849; Proteus mirabilis IFO 3849, Gram -. How it is done:
as §1

Assay [12] relates to Proteus vulgaris OX-19. The note with it: OX19; Proteus vulgaris OX-19, Gram -; read-out: Minimum inhibitory concentration (MIC). The protocol:
as §1

Assay [13] deals with Pseudomonas aeruginosa E-2. The note with it: E2; Pseudomonas aeruginosa E-2, Gram -. The protocol: as §1
The subject of assay [14] is Pseudomonas aeruginosa IFO 3445. The note with it: Pseudomonas aeruginosa, IFO3445, Pseudomonas aeruginosa IFO 3445, Gram -. The protocol: as §1
The test system of assay [15] is Pseudomonas aeruginosa NCTC 10490. The note with it: Pseudomonas aeruginosa, NCTC10490, Pseudomonas aeruginosa NCTC 10490, Gram -. How it is done:
as §1

In assay [16] the test system is Salmonella typhimurium IID 971. The note with it: Salmonella enterica, read-out: Minimum inhibitory concentration (MIC). The protocol:
as §1

For assay [17], the system named is Serratia marcescens IAM 1184. The note with it: Serratia marcescens, IAM1184, Serratia marcescens IAM 1184, Gram -. The protocol: as §1
In assay [18] the test system is Shigella sonnei EW-33. The note with it: EW33; Shigella sonnei EW-33, Gram -. The protocol:
as §1

Assay [19] relates to Staphylococcus aureus FDA 209P JC-1. The note with it: FDA209P; Staphylococcus aureus FDA 209P JC-1, Gram +. How it is done: as §1
In assay [20] the test system is Staphylococcus aureus IID 803. The protocol:
as §1

Assay [21] relates to Staphylococcus epidermidis IAM-1296. The note with it: Staphylococcus epidermidis, IAM1296, Staphylococcus epidermidis IAM-1296, Gram +. How it is done: as §1
For assay [22], the system named is Streptococcus faecalis IID 682. The note with it: Enterococcus faecalis, IID682, Streptococcus faecalis IID 682, Gram +. How it is done: as §1
The mark [23] stands for this setting: PCI602, Klebsiella pneumoniae PCI 602, Gram -, read-out: Minimum inhibitory concentration (MIC).
[24] abbreviates: Salmonella typhimurium IID 971, Gram -.
[25] abbreviates: IID803, Staphylococcus aureus IID 803, Gram +, read-out: Minimum inhibitory concentration (MIC).
Setting [26] is: ATCC6633, Bacillus subtilis ATCC 6633, Gram +, read-out: Minimum inhibitory concentration (MIC).

Converted amounts (≈) assume the structure as drawn. Where a name gives a salt, the structure may show the parent alone. Read-outs that look alike come from different tables or passages of the source.

Take `O=C(O)c1c(=O)c2cc(F)c(N3CCN(O)CC3)c3c2n2c(csc12)CO3` [Compound (F), 9,1-Epoxymethano-7-fluoro-8-(4-hydroxy-1-piperazinyl)-5-oxo-5H-thiazolo[3,2-a]quinoline-4-carboxylic acid.1/4hydrate]: the MIC in [1] is 1.56 µg/mL; in [2] (Bacillus subtilis, ATCC6633, read-out: Minimum inhibitory concentration (MIC)) it was 0.1 µg/mL; in assay [3] it was 0.2 µg/mL; in [4], 0.1 µg/mL; in assay [5] it was 0.2 µg/mL; in [6], 0.1 µg/mL. The MIC was 0.2 µg/mL in assay [7]; 0.025 µg/mL in assay [8] (setting [23]); 6.25 µg/mL in [9]; 0.1 µg/mL in assay [10]; 0.2 µg/mL in assay [11]; 0.05 µg/mL in assay [12]. Moreover, the MIC was 1.56 µg/mL in [13]; 1.56 µg/mL in assay [14]; 0.78 µg/mL in [15]; 0.05 µg/mL in assay [16] (setting [24]); 0.78 µg/mL in assay [17]; 0.05 µg/mL in [18]. For the same compound, the MIC was found to be 0.39 µg/mL in assay [19], 0.39 µg/mL in assay [20] (setting [25]), 1.56 µg/mL in assay [21] and 1.56 µg/mL in [22].
Consider `O=C(O)c1c(=O)c2cc(F)c(N3CCCC3)c3c2n2c(csc12)CO3` [Compound (G), 9,1-Epoxymethano-7-fluoro-8-(1-pyrrolidinyl)-5-oxo-5H-thiazolo[3,2-a]quinoline-4-carboxylic acid], for which the MIC was 0.2 µg/mL (≈ 0.555 µM) in [1]; 0.025 µg/mL (≈ 0.0694 µM) in assay [2] (setting [26]); 3.13 µg/mL (≈ 8.69 µM) in [3]; 0.1 µg/mL (≈ 0.277 µM) in [4]; 0.39 µg/mL (≈ 1.08 µM) in assay [5]; 0.2 µg/mL (≈ 0.555 µM) in assay [6]. Besides, the MIC in assay [7] is 0.2 µg/mL (≈ 0.555 µM); in assay [8] (setting [23]), 0.1 µg/mL (≈ 0.277 µM); in assay [9], 3.13 µg/mL; in assay [10] it was 0.2 µg/mL (≈ 0.555 µM); in assay [11], 0.39 µg/mL (≈ 1.08 µM); in assay [12], 0.1 µg/mL (≈ 0.277 µM). Further, the MIC in assay [13] is 1.56 µg/mL (≈ 4.33 µM); in assay [14], 1.56 µg/mL (≈ 4.33 µM); in assay [15], 0.78 µg/mL (≈ 2.16 µM); in assay [16] (setting [24]), 0.1 µg/mL (≈ 0.277 µM); in [17] it was 1.56 µg/mL (≈ 4.33 µM); in [18] it was 0.1 µg/mL (≈ 0.277 µM). Also, the MIC in [19] was 0.025 µg/mL; in [20] (Staphylococcus aureus, IID803, read-out: Minimum inhibitory concentration (MIC)) it was 0.05 µg/mL (≈ 0.139 µM); in assay [21], 0.05 µg/mL; in assay [22], 0.2 µg/mL.
For `O=C(O)c1c(=O)c2cc(F)c(N3CCC(O)C3)c3c2n2c(csc12)CO3` (centres unmarked) [Compound (H), 9,1-Epoxymethano-7-fluoro-8-(3-hydroxy-1-pyrrolidinyl)-5-oxo-5H-thiazolo[3,2-a]quinoline-4-carboxylic acid], the MIC in assay [1] is 0.1 µg/mL (≈ 0.266 µM); in [2] (setting [26]) it was 0.006 µg/mL (≈ 0.0159 µM); in assay [3] it was 0.39 µg/mL (≈ 1.04 µM); in assay [4] it was 0.1 µg/mL (≈ 0.266 µM); in assay [5] it was 0.1 µg/mL (≈ 0.266 µM); in assay [6] it was 0.05 µg/mL (≈ 0.133 µM). Further, the MIC in assay [7] worked out at 0.05 µg/mL (≈ 0.133 µM); in [8] (setting [23]), 0.006 µg/mL (≈ 0.0159 µM); in [9], 0.78 µg/mL; in assay [10], 0.1 µg/mL (≈ 0.266 µM); in [11], 0.1 µg/mL (≈ 0.266 µM); in [12], 0.0125 µg/mL (≈ 0.0332 µM). Also, the MIC amounted to 0.39 µg/mL (≈ 1.04 µM) in assay [13]; 0.39 µg/mL (≈ 1.04 µM) in [14]; 0.39 µg/mL (≈ 1.04 µM) in assay [15]; 0.0125 µg/mL (≈ 0.0332 µM) in assay [16] (setting [24]); 0.39 µg/mL (≈ 1.04 µM) in assay [17]; 0.05 µg/mL (≈ 0.133 µM) in [18]. The MIC is 0.025 µg/mL in [19], 0.025 µg/mL (≈ 0.0664 µM) in assay [20] (setting [25]), 0.2 µg/mL in assay [21] and 0.2 µg/mL in assay [22].
For the compound `NC1CCN(c2c(F)cc3c(=O)c(C(=O)O)c4scc5n4c3c2OC5)C1` (centres unmarked) [Compound (I), 9,1-Epoxymethano-7-fluoro-8-(3-amino-1-pyrrolidinyl)-5-oxo-5H-thiazolo[3,2-a]quinoline-4-carboxylic acid], the MIC was 0.78 µg/mL (≈ 2.08 µM) in assay [1]; 0.2 µg/mL (≈ 0.533 µM) in assay [2] (setting [26]); 0.2 µg/mL (≈ 0.533 µM) in [3]; 0.1 µg/mL (≈ 0.266 µM) in assay [4]; 0.2 µg/mL (≈ 0.533 µM) in assay [5]; 0.1 µg/mL (≈ 0.266 µM) in assay [6]. In addition, the MIC in assay [7] amounted to 0.2 µg/mL (≈ 0.533 µM); in [8] (PCI602, read-out: Minimum inhibitory concentration (MIC)), 0.05 µg/mL (≈ 0.133 µM); in [9] it was 1.56 µg/mL; in assay [10], 0.2 µg/mL (≈ 0.533 µM); in [11], 0.39 µg/mL (≈ 1.04 µM); in [12], 0.2 µg/mL (≈ 0.533 µM). Further, the MIC in [13] turned out to be 0.78 µg/mL (≈ 2.08 µM); in assay [14], 0.78 µg/mL (≈ 2.08 µM); in assay [15] it was 0.39 µg/mL (≈ 1.04 µM); in assay [16] (setting [24]), 0.1 µg/mL (≈ 0.266 µM); in assay [17], 0.78 µg/mL (≈ 2.08 µM); in [18], 0.1 µg/mL (≈ 0.266 µM). Further, the MIC in assay [19] worked out at 0.2 µg/mL; in assay [20] (setting [25]), 0.39 µg/mL (≈ 1.04 µM); in assay [21], 0.78 µg/mL; in assay [22], 0.78 µg/mL.
`CCN1CCN(c2c(F)cc3c(=O)c(C(=O)O)c4scc5n4c3c2OC5)CC1` [Compound (J), 9,1-Epoxymethano-7-fluoro-8-(4-ethyl-1-piperazinyl)-5-oxo-5H-thiazolo[3,2-a]quinoline-4-carboxylic acid.hydrochloride.1/2hydrate]: the MIC in [1] was 0.1 µg/mL; in assay [2] (setting [26]), 0.1 µg/mL; in assay [3], 0.39 µg/mL; in assay [4] it was 0.1 µg/mL; in assay [5] it was 0.1 µg/mL; in assay [6], 0.1 µg/mL. The MIC in assay [7] was 0.1 µg/mL; in assay [8] (setting [23]), 0.025 µg/mL; in [9] it was 3.13 µg/mL; in [10], 0.1 µg/mL; in [11], 0.39 µg/mL; in assay [12], 0.05 µg/mL. Further, the MIC in [13] came to 1.56 µg/mL; in assay [14], 3.13 µg/mL; in assay [15], 0.78 µg/mL; in assay [16] it was 0.05 µg/mL; in assay [17] it was 0.39 µg/mL; in assay [18], 0.1 µg/mL. The MIC was 0.2 µg/mL in [19], 0.2 µg/mL in assay [20] (setting [25]), 0.39 µg/mL in assay [21] and 0.78 µg/mL in [22].

The values are drawn from patent publication US4808584A, “Quinolinecarboxylic acid derivatives and antibacterial agent containing the same” (Kanebo, Ltd., priority 1987, dated 1989).
